Data on seven molecules can be found in ChEMBL document CHEMBL4368865, “Synthesis, characterization and cytotoxic activity evaluation of ginsengdiol oxidation and nitrogen hybrid derivatives” (Medchemcomm, 2018).

In general, IC50 refers to the point on the concentration scale where inhibition reaches its midpoint.

The structures appear in SMILES notation.

Test system in one assay: not listed separately
In words: Cytotoxicity against human 8901 cells assessed as inhibition of cell proliferation after 48 hrs by MTT assay. It counts as functional, cell-based.
Details: not given
Background: Tetrazolium dyes change colour on reduction, which living cells bring about.
For `CC1(C)CCC[C@](C)([C@H]2CC[C@]3(C)[C@@H]2[C@H](O)C[C@@H]2[C@@]4(C)Cc5c([nH]c6ccccc56)C(C)(C)[C@@H]4CC[C@]23C)O1`, the IC50 is above 100 µM.
In the case of `CC(C)(O)CCC[C@@](C)(O)[C@H]1CC[C@]2(C)[C@@H]1[C@H](O)C[C@@H]1[C@@]3(C)C=C(O)C(=O)C(C)(C)[C@@H]3CC[C@]12C`, the concentration for half-maximal inhibition (IC50) is 87.8 µM.
The same measure, in the same setting: then `CC1(C)CCC[C@](C)([C@H]2CC[C@]3(C)[C@@H]2[C@H](O)C[C@@H]2[C@@]4(C)CC(C#N)=C(O)C(C)(C)[C@@H]4CC[C@]23C)O1`, with 25.7 µM; and `Cc1ncc2c(n1)C(C)(C)[C@@H]1CC[C@]3(C)[C@H](C[C@@H](O)[C@@H]4[C@@H]([C@@]5(C)CCCC(C)(C)O5)CC[C@]43C)[C@@]1(C)C2`, with above 100 µM; and `COC(C)(C)CCC[C@@](C)(O)[C@H]1CC[C@]2(C)[C@@H]1[C@H](O)C[C@@H]1[C@@]3(C)CCC(=O)C(C)(C)[C@@H]3CC[C@]12C`, with 78.6 µM.
Still for that read-out and setting: then `CC1(C)CCC[C@](C)([C@H]2CC[C@]3(C)[C@@H]2[C@H](O)C[C@@H]2[C@@]4(C)CC(C=O)C(=O)C(C)(C)[C@@H]4CC[C@]23C)O1` (stereo not given in full), with 30.1 µM; and `O=c1[nH]cc(F)c(=O)[nH]1` [FLUOROURACIL], with 33.3 µM.

Another assay concerns MCF7. In words: cells. It counts as functional, cell-based. As to conditions: Homo sapiens, MCF7, 48 h.
Description: Cytotoxicity against human MCF7 cells assessed as inhibition of cell proliferation after 48 hrs by MTT assay
In the case of `CC1(C)CCC[C@](C)([C@H]2CC[C@]3(C)[C@@H]2[C@H](O)C[C@@H]2[C@@]4(C)Cc5c([nH]c6ccccc56)C(C)(C)[C@@H]4CC[C@]23C)O1`, the IC50 was above 100 µM.
Still for that read-out and setting: in the case of `CC(C)(O)CCC[C@@](C)(O)[C@H]1CC[C@]2(C)[C@@H]1[C@H](O)C[C@@H]1[C@@]3(C)C=C(O)C(=O)C(C)(C)[C@@H]3CC[C@]12C` it was 46.2 µM; in that of `CC1(C)CCC[C@](C)([C@H]2CC[C@]3(C)[C@@H]2[C@H](O)C[C@@H]2[C@@]4(C)CC(C#N)=C(O)C(C)(C)[C@@H]4CC[C@]23C)O1`, 29.7 µM; in that of `Cc1ncc2c(n1)C(C)(C)[C@@H]1CC[C@]3(C)[C@H](C[C@@H](O)[C@@H]4[C@@H]([C@@]5(C)CCCC(C)(C)O5)CC[C@]43C)[C@@]1(C)C2`, 83 µM.
Same read-out and setting: then `COC(C)(C)CCC[C@@](C)(O)[C@H]1CC[C@]2(C)[C@@H]1[C@H](O)C[C@@H]1[C@@]3(C)CCC(=O)C(C)(C)[C@@H]3CC[C@]12C`, with 50.3 µM; and `CC1(C)CCC[C@](C)([C@H]2CC[C@]3(C)[C@@H]2[C@H](O)C[C@@H]2[C@@]4(C)CC(C=O)C(=O)C(C)(C)[C@@H]4CC[C@]23C)O1` (stereo not given in full), with 28.3 µM.

A further assay has as its system A549. In words: Cytotoxicity against human A549 cells assessed as inhibition of cell proliferation after 48 hrs by MTT assay. It is filed as functional, cell-based. As to conditions: A549, 48 h.
For `CC1(C)CCC[C@](C)([C@H]2CC[C@]3(C)[C@@H]2[C@H](O)C[C@@H]2[C@@]4(C)Cc5c([nH]c6ccccc56)C(C)(C)[C@@H]4CC[C@]23C)O1`, the IC50 is above 100 µM.
Same read-out and setting: in the case of `CC(C)(O)CCC[C@@](C)(O)[C@H]1CC[C@]2(C)[C@@H]1[C@H](O)C[C@@H]1[C@@]3(C)C=C(O)C(=O)C(C)(C)[C@@H]3CC[C@]12C` it was 24.3 µM; in that of `CC1(C)CCC[C@](C)([C@H]2CC[C@]3(C)[C@@H]2[C@H](O)C[C@@H]2[C@@]4(C)CC(C#N)=C(O)C(C)(C)[C@@H]4CC[C@]23C)O1`, 12.9 µM; in that of `Cc1ncc2c(n1)C(C)(C)[C@@H]1CC[C@]3(C)[C@H](C[C@@H](O)[C@@H]4[C@@H]([C@@]5(C)CCCC(C)(C)O5)CC[C@]43C)[C@@]1(C)C2`, above 100 µM.
Same read-out and setting: in the case of `COC(C)(C)CCC[C@@](C)(O)[C@H]1CC[C@]2(C)[C@@H]1[C@H](O)C[C@@H]1[C@@]3(C)CCC(=O)C(C)(C)[C@@H]3CC[C@]12C` it was 39.9 µM.
The same measure, in the same setting: in the case of `CC1(C)CCC[C@](C)([C@H]2CC[C@]3(C)[C@@H]2[C@H](O)C[C@@H]2[C@@]4(C)CC(C=O)C(=O)C(C)(C)[C@@H]4CC[C@]23C)O1` (stereo not given in full) it was 18.5 µM.

A further assay concerns HeLa. In words: Cytotoxicity against human HeLa cells assessed as inhibition of cell proliferation after 48 hrs by MTT assay. It counts as functional, cell-based.
Details: not given
As for `CC1(C)CCC[C@](C)([C@H]2CC[C@]3(C)[C@@H]2[C@H](O)C[C@@H]2[C@@]4(C)Cc5c([nH]c6ccccc56)C(C)(C)[C@@H]4CC[C@]23C)O1`, the IC50 is above 100 µM.
`CC(C)(O)CCC[C@@](C)(O)[C@H]1CC[C@]2(C)[C@@H]1[C@H](O)C[C@@H]1[C@@]3(C)C=C(O)C(=O)C(C)(C)[C@@H]3CC[C@]12C`: the half-inhibitory concentration (IC50) was determined as 50.9 µM.
Same read-out and setting: in the case of `CC1(C)CCC[C@](C)([C@H]2CC[C@]3(C)[C@@H]2[C@H](O)C[C@@H]2[C@@]4(C)CC(C#N)=C(O)C(C)(C)[C@@H]4CC[C@]23C)O1` it was 12.7 µM.
As for `Cc1ncc2c(n1)C(C)(C)[C@@H]1CC[C@]3(C)[C@H](C[C@@H](O)[C@@H]4[C@@H]([C@@]5(C)CCCC(C)(C)O5)CC[C@]43C)[C@@]1(C)C2`, the IC50 is above 100 µM.
The same measure, in the same setting: in the case of `COC(C)(C)CCC[C@@](C)(O)[C@H]1CC[C@]2(C)[C@@H]1[C@H](O)C[C@@H]1[C@@]3(C)CCC(=O)C(C)(C)[C@@H]3CC[C@]12C` it was above 100 µM.
Still for that read-out and setting: in the case of `CC1(C)CCC[C@](C)([C@H]2CC[C@]3(C)[C@@H]2[C@H](O)C[C@@H]2[C@@]4(C)CC(C=O)C(=O)C(C)(C)[C@@H]4CC[C@]23C)O1` (stereo not given in full) it was 31.9 µM; in that of `O=c1[nH]cc(F)c(=O)[nH]1` [FLUOROURACIL], 28.2 µM.

The next assay has as its system U-87 MG. In words: Cytotoxicity against human U87 cells assessed as inhibition of cell proliferation after 48 hrs by MTT assay. It is filed as functional, cell-based, U-87MG ATCC.
Details: not given
As to `CC1(C)CCC[C@](C)([C@H]2CC[C@]3(C)[C@@H]2[C@H](O)C[C@@H]2[C@@]4(C)Cc5c([nH]c6ccccc56)C(C)(C)[C@@H]4CC[C@]23C)O1`, the concentration for half-maximal inhibition (IC50) was above 100 µM.
The same measure, in the same setting: in the case of `CC(C)(O)CCC[C@@](C)(O)[C@H]1CC[C@]2(C)[C@@H]1[C@H](O)C[C@@H]1[C@@]3(C)C=C(O)C(=O)C(C)(C)[C@@H]3CC[C@]12C` it was 45.4 µM; in that of `CC1(C)CCC[C@](C)([C@H]2CC[C@]3(C)[C@@H]2[C@H](O)C[C@@H]2[C@@]4(C)CC(C#N)=C(O)C(C)(C)[C@@H]4CC[C@]23C)O1`, 41.6 µM.
For `Cc1ncc2c(n1)C(C)(C)[C@@H]1CC[C@]3(C)[C@H](C[C@@H](O)[C@@H]4[C@@H]([C@@]5(C)CCCC(C)(C)O5)CC[C@]43C)[C@@]1(C)C2`, the IC50 amounted to 86.3 µM.
Turning to `COC(C)(C)CCC[C@@](C)(O)[C@H]1CC[C@]2(C)[C@@H]1[C@H](O)C[C@@H]1[C@@]3(C)CCC(=O)C(C)(C)[C@@H]3CC[C@]12C`, the IC50 is above 100 µM.
The same measure, in the same setting: then `CC1(C)CCC[C@](C)([C@H]2CC[C@]3(C)[C@@H]2[C@H](O)C[C@@H]2[C@@]4(C)CC(C=O)C(=O)C(C)(C)[C@@H]4CC[C@]23C)O1` (stereo not given in full), with 30.6 µM; and `O=c1[nH]cc(F)c(=O)[nH]1` [FLUOROURACIL], with 22 µM.

Test system in the next assay: not listed separately
In words: Cytotoxicity against human IOSE-144 cells assessed as inhibition of cell proliferation after 48 hrs by MTT assay. It is filed as cell-based. The settings on record: IOSE-144, 48 h.
As for `CC1(C)CCC[C@](C)([C@H]2CC[C@]3(C)[C@@H]2[C@H](O)C[C@@H]2[C@@]4(C)Cc5c([nH]c6ccccc56)C(C)(C)[C@@H]4CC[C@]23C)O1`, the IC50 is above 100 µM.
The same measure, in the same setting: then `CC(C)(O)CCC[C@@](C)(O)[C@H]1CC[C@]2(C)[C@@H]1[C@H](O)C[C@@H]1[C@@]3(C)C=C(O)C(=O)C(C)(C)[C@@H]3CC[C@]12C`, with above 100 µM.
Still for that read-out and setting: then `CC1(C)CCC[C@](C)([C@H]2CC[C@]3(C)[C@@H]2[C@H](O)C[C@@H]2[C@@]4(C)CC(C#N)=C(O)C(C)(C)[C@@H]4CC[C@]23C)O1`, with above 100 µM; and `Cc1ncc2c(n1)C(C)(C)[C@@H]1CC[C@]3(C)[C@H](C[C@@H](O)[C@@H]4[C@@H]([C@@]5(C)CCCC(C)(C)O5)CC[C@]43C)[C@@]1(C)C2`, with above 100 µM; and `COC(C)(C)CCC[C@@](C)(O)[C@H]1CC[C@]2(C)[C@@H]1[C@H](O)C[C@@H]1[C@@]3(C)CCC(=O)C(C)(C)[C@@H]3CC[C@]12C`, with above 100 µM.
Still for that read-out and setting: then `CC1(C)CCC[C@](C)([C@H]2CC[C@]3(C)[C@@H]2[C@H](O)C[C@@H]2[C@@]4(C)CC(C=O)C(=O)C(C)(C)[C@@H]4CC[C@]23C)O1` (stereo not given in full), with above 100 µM.
For `O=c1[nH]cc(F)c(=O)[nH]1` [FLUOROURACIL], the IC50 stood at 34.8 µM.
